Experimental data as given in US8530648B2, “Diaza-spiro[5.5]undecanes” (Novartis AG, priority 2009, dated 2013).

Assays:
hOx1R = hOx1R (Homo sapiens (Human), UniProt O43613); assay: Calcium accumulation in cells (FLIPR), hOx1R; format: cell-based; settings: for inhibition at 10 µM: measured at a concentration of 10 μM of compound; for Ki: inhibition of orexin A induced calcium accumulation, Cheng and Prusoff correction
Method: (§1) Calcium Accumulation in Cells (FLIPR):
(§2) Cells expressing human orexin 1 or human orexin 2 receptors, were seeded at 8,000 cells/well in 384 well black-walled clear bottom, poly-D-lysine coated plates. After 24 h, the medium was removed and cells were washed once with phosphate buffered saline and serum-deprived overnight in assay buffer (130 mM NaCl, 5.4 mM KCl, 1.8 mM CaCl2, 0.8 mM MgSO4, 0.9 mM NaH2PO4, 25 mM glucose, 20 mM HEPES, pH 7.4) containing bovine serum albumin (1% w/v).
(§3) On the day of the experiment, the cells seeded in black plates were treated with assay buffer containing the Ca^2+ sensitive fluorescent dye Fluo-4-AM (2 μM), and probenecid (0.1 mM). After 1 h plates were washed twice with, and resuspended in, assay buffer containing probenecid (0.1 mM) using a multi plate washer. […] Fluorescence measurements were then continued every 1 S for 120 S followed by every 4 S for 240 S.
(§4) The measurements were typically made in two sequences:
(§5) Compounds of formula I were tested usually in a concentration range from 10^−9 M to 10^−5 M.
(§6) In the second round, performed one hour later (to allow for equilibration), Orexin A was tested either in the absence (calibration curves, Orexin A agonist controls) or in the presence of compounds of formula I to determine antagonism.

hOx2R = hOx2R (Homo sapiens (Human), UniProt O43614); assay: Calcium accumulation in cells (FLIPR), hOx2R; format: cell-based; settings: for Ki: inhibition of orexin A induced calcium accumulation, Cheng and Prusoff correction; for inhibition at 10 µM: measured at a concentration of 10 μM of compound
Method: as §1, §2, §3, §4, §5, §6

hOx2R, sequence (O43614 whole entry): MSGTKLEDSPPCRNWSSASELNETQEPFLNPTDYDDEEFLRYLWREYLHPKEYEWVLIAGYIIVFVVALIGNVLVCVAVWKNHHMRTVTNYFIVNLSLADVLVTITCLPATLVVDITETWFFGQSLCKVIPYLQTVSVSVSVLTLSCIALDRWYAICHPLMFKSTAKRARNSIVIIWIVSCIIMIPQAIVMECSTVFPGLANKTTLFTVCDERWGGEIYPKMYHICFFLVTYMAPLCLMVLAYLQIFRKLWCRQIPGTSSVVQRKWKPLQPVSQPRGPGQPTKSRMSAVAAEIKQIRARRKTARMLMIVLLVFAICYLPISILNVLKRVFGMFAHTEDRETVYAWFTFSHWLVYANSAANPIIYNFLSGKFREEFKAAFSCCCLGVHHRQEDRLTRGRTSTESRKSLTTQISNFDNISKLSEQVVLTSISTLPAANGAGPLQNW
hOx1R, sequence (O43613 whole entry): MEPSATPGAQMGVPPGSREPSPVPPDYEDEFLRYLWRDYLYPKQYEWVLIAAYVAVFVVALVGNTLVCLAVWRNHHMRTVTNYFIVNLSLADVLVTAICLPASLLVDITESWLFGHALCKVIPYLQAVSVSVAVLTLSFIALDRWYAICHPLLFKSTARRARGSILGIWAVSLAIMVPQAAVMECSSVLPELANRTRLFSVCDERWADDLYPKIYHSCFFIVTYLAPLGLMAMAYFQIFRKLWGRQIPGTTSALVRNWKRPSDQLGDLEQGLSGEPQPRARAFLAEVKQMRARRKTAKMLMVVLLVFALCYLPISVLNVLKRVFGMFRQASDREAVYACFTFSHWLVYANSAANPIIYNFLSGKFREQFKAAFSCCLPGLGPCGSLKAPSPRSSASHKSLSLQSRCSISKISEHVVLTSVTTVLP

Row | inhibition at 10 µM (hOx1R) | Ki (hOx2R) | Ki (hOx1R) | inhibition at 10 µM (hOx2R) | SMILES
1 | 31% | 725 nM |  |  | O=C1N(Cc2nnnn2-c2ccccc2)CCCC12CCN(c1cnc3ccccc3n1)CC2 [Example 122, 2-((1-phenyl-1H-tetrazol-5-yl)methyl)-9-(quinoxalin-2-yl)-2,9-diazaspiro[5.5]undecan-1-one]
2 |  | 452 nM | 3100 nM |  | O=C1N(Cc2ccnc(Br)c2)CCCC12CCN(c1cnc3ccccc3n1)CC2 [Example 72, 2-((2-bromopyridin-4-yl)methyl)-9-(quinoxalin-2-yl)-2,9-diazaspiro[5.5]undecan-1-one]
3 |  | 786 nM | 2480 nM |  | O=C1N(Cc2c[nH]c3ccccc23)CCCC12CCN(c1nnc(-c3ccccc3)s1)CC2 [Example 171, 2-((1H-indol-3-yl)methyl)-9-(5-phenyl-1,3,4-thiadiazol-2-yl)-2,9-diazaspiro[5.5]undecan-1-one]
4 | 14% |  |  | 20% | O=C1N(Cc2c[nH]c3ccccc23)CCCC12CCN(c1nc(-c3ccc(F)cc3)cs1)CC2 [Example 172, 2-((1H-indol-3-yl)methyl)-9-(4-(4-fluorophenyl)thiazol-2-yl)-2,9-diazaspiro[5.5]undecan-1-one]
5 | 32% | 718 nM |  |  | O=C1N(Cc2cccnc2)CCCC12CCN(c1cnc3ccccc3n1)CC2 [Example 64, 2-(pyridin-3-ylmethyl)-9-(quinoxalin-2-yl)-2,9-diazaspiro[5.5]undecan-1-one]
6 |  | 649 nM | 3060 nM |  | N#Cc1cccc(CN2CCCC3(CCN(c4cnc5ccccc5n4)CC3)C2=O)c1 [Example 92, 3-((1-oxo-9-(quinoxalin-2-yl)-2,9-diazaspiro[5.5]undecan-2-yl)methyl)benzonitrile]
7 |  | 535 nM | 1810 nM |  | Cc1nc2ccccc2nc1N1CCC2(CCCN(Cc3c[nH]c4ccccc34)C2=O)CC1 [Example 170, 2-((1H-indol-3-yl)methyl)-9-(3-methylquinoxalin-2-yl)-2,9-diazaspiro[5.5]undecan-1-one]
8 |  | 142 nM | 1100 nM |  | N#Cc1ccc(F)c(CN2CCCC3(CCN(c4cnc5ccccc5n4)CC3)C2=O)c1 [Example 99, 4-fluoro-3-((1-oxo-9-(quinoxalin-2-yl)-2,9-diazaspiro[5.5]undecan-2-yl)methyl)benzonitrile]
9 |  | 113 nM | 1190 nM |  | Cc1cc(C)cc(CN2CCCC3(CCN(c4cnc5ccccc5n4)CC3)C2=O)c1 [Example 16, 2-(3,5-dimethylbenzyl)-9-(quinoxalin-2-yl)-2,9-diazaspiro[5.5]undecan-1-one]
10 |  | 98 nM | 1020 nM |  | O=C1N(Cc2c[nH]c3ccccc23)CCCC12CCN(c1nc3ccccc3o1)CC2 [Example 40, 2-((1H-indol-3-yl)methyl)-9-(benzo[d]oxazol-2-yl)-2,9-diazaspiro[5.5]undecan-1-one]
11 | 35% | 1360 nM |  |  | Cc1cc(C)nc(CN2CCCC3(CCN(c4cnc5ccccc5n4)CC3)C2=O)c1 [Example 106, 2-((4,6-dimethylpyridin-2-yl)methyl)-9-(quinoxalin-2-yl)-2,9-diazaspiro[5.5]undecan-1-one]
12 | 22% |  |  | 35% | O=C1N(Cc2nnc3ccccn23)CCCC12CCN(c1cnc3ccccc3n1)CC2 [Example 75, 2-([1,2,4]triazolo[4,3-a]pyridin-3-ylmethyl)-9-(quinoxalin-2-yl)-2,9-diazaspiro[5.5]undecan-1-one]
13 |  | 163 nM | 1110 nM |  | Cc1cccc(-c2sc(C)nc2CN2CCCC3(CCN(c4cnc5ccccc5n4)CC3)C2=O)c1 [Example 69, 2-((2-methyl-5-m-tolylthiazol-4-yl)methyl)-9-(quinoxalin-2-yl)-2,9-diazaspiro[5.5]undecan-1-one]
14 |  | 282 nM | 2360 nM |  | Cc1cc(CN2CCCC3(CCN(c4cnc5ccccc5n4)CC3)C2=O)c2ccccc2n1 [Example 33, 2-((2-methylquinolin-4-yl)methyl)-9-(quinoxalin-2-yl)-2,9-diazaspiro[5.5]undecan-1-one]
15 |  | 158 nM | 1310 nM |  | O=C1N(Cc2nccc3ccccc23)CCCC12CCN(c1cnc3ccccc3n1)CC2 [Example 93, 2-(isoquinolin-1-ylmethyl)-9-(quinoxalin-2-yl)-2,9-diazaspiro[5.5]undecan-1-one]
16 |  | 291 nM | 1900 nM |  | Cc1nc(-c2ccccc2)oc1CN1CCCC2(CCN(c3cnc4ccccc4n3)CC2)C1=O [Example 119, 2-((4-methyl-2-phenyloxazol-5-yl)methyl)-9-(quinoxalin-2-yl)-2,9-diazaspiro[5.5]undecan-1-one]

Row | inhibition at 10 µM (hOx1R) | Ki (hOx2R) | Ki (hOx1R) | inhibition at 10 µM (hOx2R) | SMILES
17 |  | 299 nM | 2340 nM |  | O=C1N(Cc2cc(-n3cccn3)ccn2)CCCC12CCN(c1cnc3ccccc3n1)CC2 [Example 127, 2-((4-(1H-pyrazol-1-yl)pyridin-2-yl)methyl)-9-(quinoxalin-2-yl)-2,9-diazaspiro[5.5]undecan-1-one]
18 | < 10% |  |  | < 10% | CC(C)c1nc(CN2CCCC3(CCN(c4cnc5ccccc5n4)CC3)C2=O)co1 [Example 176, 2-((2-isopropyloxazol-4-yl)methyl)-9-(quinoxalin-2-yl)-2,9-diazaspiro[5.5]undecan-1-one]
19 |  | 244 nM | 1150 nM |  | Cc1[nH]c2ccccc2c1CN1CCCC2(CCN(c3cnc4ccccc4n3)CC2)C1=O [Example 133, 2-((2-methyl-1H-indol-3-yl)methyl)-9-(quinoxalin-2-yl)-2,9-diazaspiro[5.5]undecan-1-one]
20 |  | 656 nM | 509 nM |  | O=C1CCCC2(CCN(c3nnc(-c4ccccc4)o3)CC2)N1Cc1cccc2[nH]ccc12 [Example 137, 1-((1H-indol-4-yl)methyl)-9-(5-phenyl-1,3,4-oxadiazol-2-yl)-1,9-diazaspiro[5.5]undecan-2-one]
21 |  | 1600 nM | 3520 nM |  | COc1ccccc1-n1ccnc1CN1CCCC2(CCN(c3cnc4ccccc4n3)CC2)C1=O [Example 112, 2-((1-(2-methoxyphenyl)-1H-imidazol-2-yl)methyl)-9-(quinoxalin-2-yl)-2,9-diazaspiro[5.5]undecan-1-one]
22 |  | 197 nM | 591 nM |  | O=C1N(Cc2noc3ccccc23)CCCC12CCN(c1cnc3ccccc3n1)CC2 [Example 36, 2-(benzo[d]isoxazol-3-ylmethyl)-9-(quinoxalin-2-yl)-2,9-diazaspiro[5.5]undecan-1-one]
23 |  | 212 nM | 925 nM |  | Cn1nc(CN2CCCC3(CCN(c4cnc5ccccc5n4)CC3)C2=O)c2ccccc21 [Example 142, 2-((1-methyl-1H-indazol-3-yl)methyl)-9-(quinoxalin-2-yl)-2,9-diazaspiro[5.5]undecan-1-one]
24 |  | 217 nM | 570 nM |  | O=C1N(Cc2cccc(-c3ccncc3)c2)CCCC12CCN(c1cnc3ccccc3n1)CC2 [Example 58, 2-(3-(pyridin-4-yl)benzyl)-9-(quinoxalin-2-yl)-2,9-diazaspiro[5.5]undecan-1-one]
25 |  | 258 nM | 3420 nM |  | O=C1N(Cc2cnc3ccccn23)CCCC12CCN(c1cnc3ccccc3n1)CC2 [Example 70, 2-(imidazo[1,2-a]pyridin-3-ylmethyl)-9-(quinoxalin-2-yl)-2,9-diazaspiro[5.5]undecan-1-one]
26 | 47% | 1380 nM |  |  | Cc1cc(CN2CCCC3(CCN(c4cnc5ccccc5n4)CC3)C2=O)on1 [Example 105, 2-((3-methylisoxazol-5-yl)methyl)-9-(quinoxalin-2-yl)-2,9-diazaspiro[5.5]undecan-1-one]
27 | 12% |  |  | 31% | O=C1N(Cc2cccc(N3CCOCC3)c2)CCCC12CCN(c1cnc3ccccc3n1)CC2 [Example 59, 2-(3-morpholinobenzyl)-9-(quinoxalin-2-yl)-2,9-diazaspiro[5.5]undecan-1-one]
28 | < 10% |  |  | 12% | Cc1nn(-c2ccccc2)nc1CN1CCCC2(CCN(c3cnc4ccccc4n3)CC2)C1=O [Example 175, 2-((5-methyl-2-phenyl-2H-1,2,3-triazol-4-yl)methyl)-9-(quinoxalin-2-yl)-2,9-diazaspiro[5.5]undecan-1-one]
29 |  | 140 nM | 932 nM |  | N#Cc1ccccc1CN1CCCC2(CCN(c3cnc4ccccc4n3)CC2)C1=O [Example 124, 2-((1-oxo-9-(quinoxalin-2-yl)-2,9-diazaspiro[5.5]undecan-2-yl)methyl)benzonitrile]
30 |  | 115 nM | 728 nM |  | Cn1ncc2cccc(CN3CCCC4(CCN(c5cnc6ccccc6n5)CC4)C3=O)c21 [Example 107, 2-((1-methyl-1H-indazol-7-yl)methyl)-9-(quinoxalin-2-yl)-2,9-diazaspiro[5.5]undecan-1-one]
31 |  | 225 nM | 2430 nM |  | COc1cccc(CN2CCCC3(CCN(c4cnc5ccccc5n4)CC3)C2=O)c1F [Example 102, 2-(2-fluoro-3-methoxybenzyl)-9-(quinoxalin-2-yl)-2,9-diazaspiro[5.5]undecan-1-one]
32 |  | 185 nM | 675 nM |  | CC(c1c[nH]c2ccccc12)N1CCCC2(CCN(c3cnc4ccccc4n3)CC2)C1=O (stereo not shown) [Example 74, 2-(1-(1H-indol-3-yl)ethyl)-9-(quinoxalin-2-yl)-2,9-diazaspiro[5.5]undecan-1-one]
